Results: the NIST ThermoML archive (doi:10.1021/je700126z)
Numbers after ± are expanded uncertainties.

Experiments:
[1] = 298.15 K; 101.33 kPa; Liquid; Vibrating tube method
[2] = refractive index (Na D-line) (dimensionless); conditions: 298.15 K; 101.33 kPa; Liquid; Standard Abbe refractometry

| SMILES | mass density [1] | refractive index [2] |
| --- | --- | --- |
| CCCCCCCC[n+]1ccn(C)c1.F[B-](F)(F)F [1-methyl-3-octylimidazolium tetrafluoroborate] | 1104.42 ± 6.6 kg/m3 | 1.43329 ± 0.0012 |
| C1CCCCC1 [cyclohexane] | 773.76 ± 0.24 kg/m3 | 1.42403 ± 0.0007 |
| CCCCCC [hexane] | 655.06 ± 0.19 kg/m3 | 1.37287 ± 0.00068 |
| c1ccsc1 [thiophene] | 1058.5 ± 0.12 kg/m3 | 1.52581 ± 0.00068 |
